Consider 3 compounds from paper PMC7934981, “n-Propyl 6-amino-2,6-dideoxy-2,2-difluoro-β-D-glucopyranoside is a good inhibitor for the β-galactosidase from E. coli” (Medicinal Chemistry Research, 2021).

In general, Ki refers to a measure of affinity in units of concentration, obtained from inhibition or displacement. One may read the IC50 as the concentration that gives 50% inhibition. One may read the EC50 as the concentration that produces a half-maximal response.

For data set [1], the target named is T1, β-galactosidase from E. coli (Escherichia coli, UniProt P00722).
T1 construct: purchased
T1 sequence (P00722 2-1024 limits assumed): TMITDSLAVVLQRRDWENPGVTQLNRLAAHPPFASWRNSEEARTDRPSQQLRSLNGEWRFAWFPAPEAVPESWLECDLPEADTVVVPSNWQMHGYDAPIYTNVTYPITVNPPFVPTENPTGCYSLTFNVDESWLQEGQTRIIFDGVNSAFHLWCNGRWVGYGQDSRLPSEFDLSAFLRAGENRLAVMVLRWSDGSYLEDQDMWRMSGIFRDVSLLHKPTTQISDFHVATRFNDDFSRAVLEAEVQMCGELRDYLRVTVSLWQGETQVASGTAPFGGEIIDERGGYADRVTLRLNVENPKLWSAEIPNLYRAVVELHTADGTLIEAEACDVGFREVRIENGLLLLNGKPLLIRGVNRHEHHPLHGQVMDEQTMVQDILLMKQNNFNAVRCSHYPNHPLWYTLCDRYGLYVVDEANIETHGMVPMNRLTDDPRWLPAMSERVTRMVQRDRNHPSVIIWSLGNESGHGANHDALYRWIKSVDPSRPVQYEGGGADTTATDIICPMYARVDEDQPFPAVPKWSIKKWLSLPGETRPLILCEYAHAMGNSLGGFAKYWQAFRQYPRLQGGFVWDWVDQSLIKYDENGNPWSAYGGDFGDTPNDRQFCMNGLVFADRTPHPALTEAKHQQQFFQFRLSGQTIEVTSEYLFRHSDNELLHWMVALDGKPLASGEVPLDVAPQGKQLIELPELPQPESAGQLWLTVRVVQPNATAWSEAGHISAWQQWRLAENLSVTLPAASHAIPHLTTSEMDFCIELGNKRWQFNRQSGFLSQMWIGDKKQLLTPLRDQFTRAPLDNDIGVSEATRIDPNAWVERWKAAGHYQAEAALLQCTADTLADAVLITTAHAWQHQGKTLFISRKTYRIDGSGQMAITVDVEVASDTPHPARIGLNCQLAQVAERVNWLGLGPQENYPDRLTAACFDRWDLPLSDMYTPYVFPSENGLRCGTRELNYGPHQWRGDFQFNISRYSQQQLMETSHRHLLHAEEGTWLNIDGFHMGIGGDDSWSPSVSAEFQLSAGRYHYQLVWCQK
Nature of the data set: Glycosidase inhibition, p-nitrophenolate assay. The data set is classed as biochemical. The following applies: mean of triplicate experiments. As to the method: (§1) An in vitro evaluation of these compounds to act as an enzyme inhibitor using a panel of commercially available glycosidases was performed (Table 1) using p-nitrophenolate assays.
(§2) The corresponding p-nitrophenyl glycoside and the inhibitors were dissolved in NaOAc buffer (0.05 M, pH = 6.0) reaching final concentrations of 1.0, 1.11, 1.25, 1.43, 1.67, 2.0, 2.5, 3.33, 5.0, and 10 mM. Further dilutions (if necessary) were made in the ratios 1:60, 1:50, 1:40, 1:30, 1:20, 1:10, and 1:5. The ice-cooled solution of the enzymes was contained between 4.0 and 4.5 U/mL. The kinetic assays were performed in 96-well microtiter plates. The following solutions were pipetted per well: p-nitrophenyl glycoside (100 μL), enzyme (50 μL), inhibitor (100 μL), and standard (p-nitrophenol, 5 μL). Immediately after addition, UV/Vis absorption was measured at 42 °C and λ = 415 nm for 20 min with a single measurement interval of 50 s.

In data set [2] the target is T2, α-galactosidase from green coffee beans (Coffea arabica, UniProt Q42656).
T2 construct: purchased
T2 sequence (Q42656 16-378): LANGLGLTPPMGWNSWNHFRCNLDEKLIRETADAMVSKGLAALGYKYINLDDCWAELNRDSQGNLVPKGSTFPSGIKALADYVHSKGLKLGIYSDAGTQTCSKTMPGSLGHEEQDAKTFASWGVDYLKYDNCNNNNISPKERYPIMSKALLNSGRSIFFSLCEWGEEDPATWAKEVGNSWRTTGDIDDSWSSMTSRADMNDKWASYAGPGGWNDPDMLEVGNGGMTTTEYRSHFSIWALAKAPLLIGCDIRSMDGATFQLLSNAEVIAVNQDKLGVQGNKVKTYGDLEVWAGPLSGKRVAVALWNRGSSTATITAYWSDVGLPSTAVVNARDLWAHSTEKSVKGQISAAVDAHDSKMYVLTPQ
Nature of the data set: Glycosidase inhibition, p-nitrophenolate assay. The data set is classed as biochemical. The following applies: mean of triplicate experiments. The protocol:
as §1, §2

In data set [3] the target is β-glucosidase from almonds. Nature of the data set: Glycosidase inhibition, p-nitrophenolate assay. The data set is classed as biochemical. The following applies: mean of triplicate experiments, n.a. = no activity. The protocol:
as §1, §2

Data set [4] concerns the target T3, α-glucosidase from Baker’s yeast (Saccharomyces cerevisiae, UniProt P53341).
T3 construct: purchased
Nature of the data set: Glycosidase inhibition, p-nitrophenolate assay. It is filed as biochemical. As to the method: as §1, §2

The test system of data set [5] is panel of commercially available glycosidases. Nature of the data set: Glycosidase panel, type of inhibition and selectivity (p-nitrophenolate assays). It is filed as biochemical. The following applies: panel of five glycosidases. The protocol: as §1, §2
Data set [6] is described as follows: Cytotoxicity, sulforhodamine B (SRB) assay, nonmalignant cells. The following applies: NIH 3T3 fibroblasts (nonmalignant); for IC50 at 3 days: nonmalignant NIH 3T3 mouse fibroblasts, no significant cytotoxicity; for EC50 at 3 days: mouse, as restated in the conclusion, NIH 3T3, read-out: EC50, cytotoxicity (SRB assays). It is filed as cell-based, mouse. As to the method:
(§3) Low or absent cytotoxicity is a mandatory requirement for subsequent therapeutic use of the compounds as glycosidase inhibitors. Therefore, their cytotoxicity was determined.
(§4) The cell lines were obtained from Department of oncology (Martin-Luther-University Halle-Wittenberg). Cultures were maintained as monolayers in RPMI 1640 medium with L-glutamine (Capricorn Scientific GmbH, Ebsdorfergrund, Germany) supplemented with 10% heat inactivated fetal bovine serum (Sigma-Aldrich Chemie GmbH, Steinheim, Germany) and penicillin/streptomycin (1%, Capricorn Scientific GmbH, Ebsdorfergrund, Germany) at 37 °C in a humidified atmosphere with 5% CO2.
(§5) The cytotoxicity of the compounds was evaluated using the SRB (Kiton-Red S, ABCR) micro culture colorimetric assay using […] cells in 96-well plates with the seeding of the cells on day 0 applying appropriate cell densities to prevent confluence of the cells during the period of the experiment. On day 1, the cells were treated with six different concentrations (1, 3, 7, 12, 20, and 30 μM); thereby, the final concentration of DMSO was always < 0.5%, generally regarded as nontoxic to the cells. On day 4, the supernatant medium was discarded; the cells were fixed with 10% trichloroacetic acid. After another day at 4 °C, the cells were washed in a strip washer and dyed with the SRB solution (100 μL, 0.4% in 1% acetic acid) for about 20 min to be followed by washing of the plates (four times, 1% acetic acid) and air-drying overnight. Furthermore, tris base solution (200 μL, 10 mM) was added to each well and absorbance was measured at λ = 570 nm employing a reader (96-wells, Tecan Spectra, Crailsheim, Germany).
Background: The SRB assay estimates cell density from bound dye.

Data set [7] is described as follows: Cytotoxicity, sulforhodamine B (SRB) assay, cancer cell panel. The following applies: for EC50 at 3 days: as restated in the conclusion, human cancer cell lines, read-out: EC50, cytotoxicity (SRB assays); for IC50 at 3 days: panel of 15 human cancer cell lines, no significant cytotoxicity. It is filed as cell-based, human. The protocol:
as §3, §4, §5

[8] abbreviates: p-nitrophenolate assay, mean of triplicate experiments, read-out: Ki, α-glucosidase from Baker’s yeast.

Structures are written as SMILES. Where two headings read alike, the source gives them in different places.

T3 sequence (P53341 whole entry): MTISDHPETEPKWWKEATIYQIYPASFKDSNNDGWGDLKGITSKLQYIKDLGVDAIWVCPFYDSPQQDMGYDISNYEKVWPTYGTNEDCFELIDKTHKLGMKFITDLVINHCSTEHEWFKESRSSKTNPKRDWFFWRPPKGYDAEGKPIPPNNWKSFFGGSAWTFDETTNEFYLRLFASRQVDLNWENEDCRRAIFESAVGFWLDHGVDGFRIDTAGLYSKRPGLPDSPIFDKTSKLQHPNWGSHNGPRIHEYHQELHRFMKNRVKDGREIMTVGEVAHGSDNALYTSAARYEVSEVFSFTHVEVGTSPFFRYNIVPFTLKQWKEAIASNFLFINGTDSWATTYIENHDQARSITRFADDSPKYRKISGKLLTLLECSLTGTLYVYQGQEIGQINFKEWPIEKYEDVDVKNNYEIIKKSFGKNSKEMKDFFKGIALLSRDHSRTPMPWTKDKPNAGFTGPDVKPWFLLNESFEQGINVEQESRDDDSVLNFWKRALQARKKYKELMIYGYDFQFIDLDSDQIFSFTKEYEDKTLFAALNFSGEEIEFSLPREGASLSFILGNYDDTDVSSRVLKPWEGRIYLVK

With `OCCN1C[C@H](O)[C@@H](O)[C@H](O)[C@H]1CO` [Miglitol, reference compound], the inhibition constant (Ki) stood at 0.16 ± 0.06 µM in data set [1], 13.9 ± 0.15 µM in data set [2], 0.21 ± 0.05 µM in data set [3] and 9.92 ± 0.14 µM in data set [4].
With `CCCO[C@@H]1O[C@H](CN)[C@@H](O)[C@H](O)C1(F)F` [compound 8, n-Propyl 6-amino-2,6-dideoxy-2,2-difluoro-β-D-glucopyranoside], the Ki in data set [1] came to 0.5 ± 0.09 µM; in data set [2], 3.81 ± 0.57 µM; in data set [3], 1.76 ± 0.13 µM; in data set [4] (setting [8]) it was 1.83 ± 0.16 µM. In addition, the “selectivity among the glycosidases” value in data set [5] was “nonselective inhibitor”. For the same compound, the IC50 at 3 days in data set [6] and in data set [7] was more than 50 µM each time. The EC50 at 3 days in data set [6] and in data set [7] was more than 50 µM each time.
Take `CCCO[C@@H]1O[C@H](CN)[C@@H](O)C(F)(F)[C@H]1O` [compound 16, n-Propyl 6-amino-3,6-dideoxy-3,3-difluoro-β-D-ribo-hexopyranoside]: the Ki in data set [1] worked out at 2.16 ± 0.93 µM; in data set [2], 4.3 ± 0.24 µM; in data set [4] (setting [8]), 4.13 ± 0.26 µM. The IC50 at 3 days in data set [6] and in data set [7] was more than 50 µM each time. The concentration giving a half-maximal response (EC50) at 3 days in data set [6] and in data set [7] was more than 50 µM throughout.
